{"source": "patent US5001120A", "about": "“Use of A-Nor-steroids as malignant cells growth inhibitors” (Natural Pharmacia International, Inc., priority 1989, dated 1991)", "key": {"[1]": {"test_system": "amitotic cells of cultured hamster's ascites tumor", "settings": "Pincus and Gordon (1965); cited from earlier work"}, "lung carcinoma (A-549)": {"test_system": "lung carcinoma (A-549)", "experiment": "In vitro ED50 against tumor cells, A-549", "type": "cell-based", "settings": "Homo sapiens", "from_the_text": "(§1) The procedure of Geran, R. T., et al. Cancer Chemother. Rep. (Part 3) 3,1 (1972) (see K. H. Lee et al., Planta Medica, 308, 1988), was employed to determine the in vitro ED50 dose for NPI-007 and NPI-008 against human tumor cells, including the lymphoid leukemia (L 1210), the lung carcinoma (A-549), the ileocecal carcinoma (HCT-8), and the mammary gland carcinoma (MCF-7) cell lines. These cell lines were obtained from the American Type Culture Collection (Rockville, Md.)."}, "[2]": {"test_system": "ileocecal carcinoma (HCT-8)", "experiment": "In vitro ED50 against tumor cells, HCT-8", "type": "cell-based", "settings": "Homo sapiens", "from_the_text": "as §1"}, "Lewis Lung Carcinoma": {"test_system": "Lewis Lung Carcinoma", "experiment": "In vivo Antitumor Activity Against Lewis Lung Carcinoma", "set-up": "species or system Mice (DBF1)", "settings": "dosage mg × 7 Days: NPI-008 0.1, Cyclophosphamide 0.4; for Tumor Weight, 3 Days After Treatment: 10 mice, control 310 ± 51.5; for Tumor Weight, 8 Days After Treatment: 11 mice, control 772 ± 360"}, "[3]": {"settings": "cited from earlier work"}, "[4]": {"test_system": "Ehrlich ascite tumor (ECA)", "experiment": "In vivo Tumor Growth Inhibition Assay, ECA", "set-up": "species or system Swiss albino female mice", "settings": "0.1 mg/0.05 ml into thigh muscle every other day, 5 treatments; for Inhibition %: wet tumor weight vs control; for Wet Weight of Tumor (treatment group): ± SE (n=5), control 0.4162 ± 0.0767", "from_the_text": "(§2) Swiss albino female mice of 10-12 weeks old, weighing 17-20 grams were separated into two groups.\n(§3) Sarcoma-180, Ehrlich ascite tumor (ECA) and U14 cell lines were separately maintained and propagated in MEM-F12 medium supplemented with 10% FCS. The cells were detached to suspension by use of 0.25% trypsin solution. After suspension, the cells were washed once with PBS and resuspended in sample buffered solution. The cells were counted by a coulter particle counting apparatus. Cells sized from 10-100 μ were obtained for calculation of dosage.\n(§4) Animals were restrained manually and 0.2 ml cell suspension containing 10^7 to 2×10^7 cells/ml for S180, U14 or ECA were injected subcutaneously in left thorax ventrally adjacent to axillae. The selected A-nor-5α-androstane (5 mg) was dissolved in 2.5 ml phosphate buffered saline (pH 7.4) solution. A solution (0.1 mg/0.05 ml) was injected into thigh muscle every other day for 5 consecutive treatments. The injection site was alternated between right and left legs. […] Control animals received injection of the same amount of PBS in a manner similar to the treated groups.\n(§5) At 2 days after the last (5th) treatment, animals were sacrificed by suffocation with carbon dioxide gas. The skin over the tumor site was reflected and the tumor mass dissected free from connective tissue and weighted with an electric balance."}, "[5]": {"test_system": "mammary gland carcinoma (MCF-7)", "experiment": "In vitro ED50 against tumor cells, MCF-7", "type": "cell-based", "settings": "Homo sapiens", "from_the_text": "as §1"}, "[6]": {"settings": "experimental animals (Ku, C.P. et al., 1975); cited from earlier work"}, "M14": {"test_system": "M14", "experiment": "In vivo Tumor Growth Inhibition Assay, M14", "set-up": "species or system Swiss albino female mice", "settings": "0.1 mg/0.05 ml into thigh muscle every other day, 5 treatments; for Inhibition %: wet tumor weight vs control; for Wet Weight of Tumor (treatment group): ± SE (n=5), control 1.1413 ± 0.1225"}, "[7]": {"test_system": "lymphoid leukemia (L 1210)", "experiment": "In vitro ED50 against tumor cells, L 1210", "type": "cell-based", "from_the_text": "as §1"}, "[8]": {"settings": "experimental and clinical evidence; cited from earlier work"}, "Sarcoma-180": {"test_system": "Sarcoma-180", "experiment": "In vivo Tumor Growth Inhibition Assay, S180", "set-up": "species or system Swiss albino female mice", "settings": "0.1 mg/0.05 ml into thigh muscle every other day, 5 treatments; for Inhibition %: wet tumor weight vs control; for Wet Weight of Tumor (treatment group): ± SE (n=5), control 2.0939 ± 0.3835", "from_the_text": "as §2, §3, §4, §5"}}, "note": "Counter-ions that a name gives are not always drawn. Like-named read-outs stand apart in the source and are kept apart here.", "data": [{"molecule": "2α,17α-diethyl,2β-17β-diol", "values": [{"measurement": "antiestrogenic activity (inhibition of estrogen-induced cell division)", "setting": "[1]", "result": "possess antiestrogenic activity"}]}, {"molecule": "C#C[C@]1(O)CC[C@H]2[C@@H]3CC[C@H]4C[C@H](C(C)=O)C[C@]4(C)[C@H]3CC[C@@]21C", "note": "[2α-acetyl-17α-ethynyl-17β-ol]", "values": [{"measurement": "antiestrogenic activity (inhibition of estrogen-induced cell division)", "setting": "[1]", "result": "possess antiestrogenic activity"}]}, {"molecule": "C#C[C@@]1(O)C[C@@H]2CC[C@@H]3[C@H](CC[C@]4(C)[C@@H](O)CC[C@@H]34)[C@@]2(C)C1", "note": "[2α-ethynyl-2β,17β-diol]", "values": [{"measurement": "antiestrogenic activity (inhibition of estrogen-induced cell division)", "setting": "[1]", "result": "possess antiestrogenic activity"}]}, {"molecule": "C#C[C@@]1(O)C[C@@H]2CC[C@@H]3[C@H](CC[C@@]4(C)[C@H]3CC[C@]4(C)O)[C@@]2(C)C1", "note": "[2α-ethynyl-2β, 17β-diol-17α-methyl]", "values": [{"measurement": "antiestrogenic activity (inhibition of estrogen-induced cell division)", "setting": "[1]", "result": "possess antiestrogenic activity"}]}, {"molecule": "COc1cccc2c1C(=O)c1c(O)c3c(c(O)c1C2=O)C[C@@](O)(C(=O)CO)C[C@@H]3O[C@H]1C[C@H](N)[C@H](O)[C@H](C)O1", "note": "[Adriamycin HCl, reference compound]", "values": [{"measurement": "IC50", "setting": "lung carcinoma (A-549); A549, read-out: ED50", "result": 0.16, "unit": "µg/mL"}, {"measurement": "IC50", "setting": "[2]; HCT-8, read-out: ED50", "result": 0.3, "unit": "µg/mL"}]}, {"molecule": "O=P1(N(CCCl)CCCl)NCCCO1", "note": "(stereo not shown) [Cyclophosphamide, reference compound]", "values": [{"measurement": "Tumor Weight, 3 Days After Treatment", "setting": "Lewis Lung Carcinoma", "result": "130 ± 31", "unit": "mg"}, {"measurement": "Tumor Weight, 8 Days After Treatment", "setting": "Lewis Lung Carcinoma", "result": "500 ± 275", "unit": "mg"}]}, {"molecule": "C#C[C@@]1(OC(=O)CC)C[C@@H]2CC[C@@H]3[C@H](CC[C@@]4(C)[C@H]3CC[C@]4(C#C)OC(=O)CC)[C@@]2(C)C1", "note": "[NPI-007, 2α,17α-diethynyl-A-nor-5α-androstane-2β,17β-diol dipropionate]", "values": [{"measurement": "hyperestrogenic side effect", "setting": "[3]; clinical studies (Ku, C.P. et al., 1975)", "result": "hyperestrogenic side effect has been noted"}, {"measurement": "anti-implantation activity", "setting": "[3]; clinical trials (Hu, C. et al., 1982)", "result": "significant anti-implantation activity"}, {"measurement": "IC50", "setting": "lung carcinoma (A-549); A549, read-out: ED50", "result": "> 10", "unit": "µg/mL"}, {"measurement": "IC50", "setting": "[2]; HCT-8, read-out: ED50", "result": 0.57, "unit": "µg/mL"}, {"measurement": "Inhibition %", "setting": "[4]", "result": 52.9, "unit": "%"}, {"measurement": "Wet Weight of Tumor (treatment group)", "setting": "[4]", "result": "0.1957 ± 0.0165", "unit": "g"}, {"measurement": "IC50", "setting": "[5]; MCF7, read-out: ED50", "result": 5.9, "unit": "µg/mL"}, {"measurement": "anti-implantation activity", "setting": "[6]", "result": "significant anti-implantation activity"}, {"measurement": "Inhibition %", "setting": "M14", "result": 43.4, "unit": "%"}, {"measurement": "Wet Weight of Tumor (treatment group)", "setting": "M14", "result": "0.6464 ± 0.0536", "unit": "g"}, {"measurement": "IC50", "setting": "[7]; L1210, read-out: ED50", "result": 4.5, "unit": "µg/mL"}, {"measurement": "anti-fertility activity", "setting": "[8]", "result": "significant anti-fertility activity"}, {"measurement": "Inhibition %", "setting": "Sarcoma-180", "result": 74.1, "unit": "%"}, {"measurement": "Wet Weight of Tumor (treatment group)", "setting": "Sarcoma-180", "result": "0.5428 ± 0.1059", "unit": "g"}]}, {"molecule": "C#C[C@@]1(OC(=O)CCC(=O)O)C[C@@H]2CC[C@@H]3[C@H](CC[C@@]4(C)[C@H]3CC[C@]4(C#C)OC(=O)CCC(=O)O)[C@@]2(C)C1", "note": "[NPI-008, 2α,17α-diethynyl-A-nor-5α-androstane-2β,17β-diol disuccinate]", "values": [{"measurement": "IC50", "setting": "lung carcinoma (A-549); A549, A-549, N = 4, read-out: ED50 (the source's name)", "result": "> 10", "unit": "µg/mL"}, {"measurement": "Tumor Weight, 3 Days After Treatment", "setting": "Lewis Lung Carcinoma", "result": "168 ± 53", "unit": "mg"}, {"measurement": "Tumor Weight, 8 Days After Treatment", "setting": "Lewis Lung Carcinoma", "result": "175 ± 153", "unit": "mg"}, {"measurement": "IC50", "setting": "[2]; HCT-8, N = 4, read-out: ED50 (the source's name)", "result": 0.41, "unit": "µg/mL"}, {"measurement": "Inhibition %", "setting": "[4]", "result": 90.0, "unit": "%"}, {"measurement": "Wet Weight of Tumor (treatment group)", "setting": "[4]", "result": "0.0416 ± 0.0120", "unit": "g"}, {"measurement": "IC50", "setting": "[5]; MCF7, MCF-7, N = 4, read-out: ED50 (the source's name)", "result": 7.6, "unit": "µg/mL"}, {"measurement": "Inhibition %", "setting": "M14", "result": 75.6, "unit": "%"}, {"measurement": "Wet Weight of Tumor (treatment group)", "setting": "M14", "result": "0.2785 ± 0.0308", "unit": "g"}, {"measurement": "IC50", "setting": "[7]; L1210, L 1210, N = 4, read-out: ED50 (the source's name)", "result": 5.87, "unit": "µg/mL"}, {"measurement": "Inhibition %", "setting": "Sarcoma-180", "result": 87.0, "unit": "%"}, {"measurement": "Wet Weight of Tumor (treatment group)", "setting": "Sarcoma-180", "result": "0.2722 ± 0.0872", "unit": "g"}]}, {"molecule": "CC[C@]1(O)C[C@@H]2CN(CCc3c([nH]c4ccccc34)[C@@](C(=O)OC)(c3cc4c(cc3OC)N(C)[C@H]3[C@@](O)(C(=O)OC)[C@H](OC(C)=O)[C@]5(CC)C=CCN6CC[C@]43[C@@H]65)C2)C1", "note": "[Vinblastine sulfate, reference compound]", "values": [{"measurement": "IC50", "setting": "lung carcinoma (A-549); A549, read-out: ED50", "result": 0.003, "unit": "µg/mL"}, {"measurement": "IC50", "setting": "[2]; HCT-8, read-out: ED50", "result": 0.005, "unit": "µg/mL"}]}, {"molecule": "COc1cc([C@@H]2c3cc4c(cc3[C@@H](O[C@@H]3O[C@@H]5CO[C@@H](C)O[C@H]5[C@H](O)[C@H]3O)[C@H]3COC(=O)[C@H]23)OCO4)cc(OC)c1O", "note": "[etoposide, reference compound]", "values": [{"measurement": "IC50", "setting": "[7]; L1210, read-out: ED50", "result": 1.58, "unit": "µg/mL"}]}]}
